From the NIST ThermoML archive (doi:10.1016/j.jct.2013.05.046)
± gives the expanded uncertainty stated by the source.

Experiments:
[1] = xn = mol fraction of the nth substance listed; details: 101 kPa, Liquid, Cone and plate viscometry, x2 = 0.8
[2] = refractive index (Na D-line) (dimensionless); xn = mol fraction of the nth substance listed; details: 101 kPa, Liquid, Standard Abbe refractometry, x2 = 0.8

CC[P+](c1ccccc1)(c1ccccc1)c1ccccc1.[I-] [ethyltriphenylphosphonium iodide] + O=S1(=O)CCCC1
Details	refractive index, 298.15 K	refractive index, 303.15 K	refractive index, 313.15 K	refractive index, 323.15 K	refractive index, 333.15 K	viscosity, 298.15 K [mPa·s]	viscosity, 308.15 K [mPa·s]	viscosity, 318.15 K [mPa·s]	viscosity, 328.15 K [mPa·s]	viscosity, 338.15 K [mPa·s]
[1]	–	–	–	–	–	95.03 ± 9.6	52.14 ± 5.3	24.15 ± 2.4	15.24 ± 1.5	9.578 ± 0.97
[2]	1.516 ± 0.0004	1.5142 ± 0.0004	1.5104 ± 0.0004	1.5069 ± 0.0004	1.5033 ± 0.0004	–	–	–	–	–
